Reference: the supplement of paper PMC10307832

Key:
Assay in all cases: relative viability (nuclei count vs DMSO), 5 days (fraction); higher = more cells survive
[1] = compound: C[C@]1(c2nc3c(C(N)=O)cccc3[nH]2)CCCN1 [Veliparib] + Cc1nc(NC(=O)N2CCC[C@H]2C(N)=O)sc1-c1ccnc(C(C)(C)C(F)(F)F)c1 [Alpelisib] (partner 2 µM)
Procedure, shortened: (§1)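 Lung cancer cell lines were pin-tool dosed in 1536-well plates on the day after seeding, with either a lone drug or a fixed anchor-drug dose plus five library-drug doses (not always all listed) in √10 steps. Nuclei were counted on 4× images after 5 days. Relative viability is the ratio of treated-well to vehicle-well nuclei counts, with each value a median of duplicate plates.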

[2] = compound: C[C@]1(c2nc3c(C(N)=O)cccc3[nH]2)CCCN1 [Veliparib] + COc1cccc2cc(-c3nc([C@H]4CC[C@H](C(=O)O)CC4)n4ncnc(N)c34)[nH]c12 [OSI-027] (partner 0.5 µM)
Procedure, shortened: as §1

[3] = compound: C[C@]1(c2nc3c(C(N)=O)cccc3[nH]2)CCCN1 [Veliparib] + O=C(CCCCCCC(=O)Nc1ccccc1)NO [Vorinostat] (partner 1 µM)
Procedure, shortened: as §1

[4] = compound: C[C@]1(c2nc3c(C(N)=O)cccc3[nH]2)CCCN1 [Veliparib] + C[C@]1(O)C[C@@H](c2nc(-c3ccc4ccc(-c5ccccc5)nc4c3)c3c(N)nccn32)C1 [Linsitinib] (partner 1 µM)
Procedure, shortened: as §1

Cell Line | relative viability ([1]; first compound 0.02 µM) | relative viability ([1]; first compound 0.06325 µM) | relative viability ([1]; first compound 0.2 µM) | relative viability ([1]; first compound 0.6325 µM) | relative viability ([1]; first compound 2 µM) | relative viability ([2]; first compound 0.02 µM) | relative viability ([2]; first compound 0.06325 µM) | relative viability ([2]; first compound 0.2 µM) | relative viability ([2]; first compound 0.6325 µM) | relative viability ([2]; first compound 2 µM) | relative viability ([3]; first compound 0.02 µM) | relative viability ([3]; first compound 0.06325 µM) | relative viability ([3]; first compound 0.2 µM) | relative viability ([3]; first compound 0.6325 µM) | relative viability ([3]; first compound 2 µM) | relative viability ([4]; first compound 0.02 µM) | relative viability ([4]; first compound 0.06325 µM) | relative viability ([4]; first compound 0.2 µM) | relative viability ([4]; first compound 0.6325 µM) | relative viability ([4]; first compound 2 µM)
COR-L23 | 0.784 | 0.733 | 0.874 | 0.597 | 0.786 | 0.707 | 0.738 | 0.841 | 0.57 | 0.77 | 0.604 | 0.353 | 0.408 | 0.445 | 0.354 | 1.1 | 0.886 | 0.9 | 0.656 | 0.816
HCC-15 | 0.842 | 0.905 | 0.863 | 0.839 | 0.902 | – | 0.641 | 0.7 | 0.619 | 0.603 | 0.838 | 0.927 | 0.862 | 0.803 | 0.757 | 0.928 | 0.84 | 0.909 | 0.83 | 0.921
NCI-H1651 | 0.889 | 0.83 | 0.922 | 0.828 | 0.856 | 0.699 | 0.626 | 0.619 | 0.659 | 0.697 | 0.557 | 0.551 | 0.513 | 0.464 | 0.504 | 0.854 | 1.01 | 0.984 | 0.82 | 0.805
CAL-12T | 1.23 | 1.05 | 1.4 | 1.12 | 1.24 | 0.62 | 0.629 | 0.604 | 0.584 | 0.657 | 0.695 | 0.834 | 0.729 | 0.589 | 0.886 | 0.356 | 0.823 | 0.775 | 0.765 | 0.817
LK-2 | – | 1.01 | 1.38 | 0.996 | 1.1 | 0.164 | 0.204 | 0.229 | 0.263 | 0.206 | 0.223 | 0.284 | 0.319 | 0.258 | 0.29 | 0.689 | 0.592 | 0.476 | 0.558 | 0.548
NCI-H1703 | 0.245 | 0.303 | 0.316 | 0.35 | 0.368 | – | – | – | – | – | – | – | – | – | – | 0.17 | 0.63 | 1.22 | 0.604 | 0.974
H3255 | 0.656 | 0.841 | 0.679 | 0.522 | 0.701 | 0.674 | 0.681 | 0.584 | 0.545 | 0.584 | 0.707 | 0.768 | 0.793 | 0.799 | 0.936 | 0.882 | 0.981 | 0.953 | 0.833 | 0.981
NCI-H727 | 0.512 | 0.572 | 0.598 | 0.538 | 0.488 | 0.527 | 0.439 | 0.648 | 0.494 | 0.537 | 1.11 | 0.948 | 1.1 | 1.14 | 1.04 | 0.284 | 0.219 | 0.253 | 0.293 | 0.24
NCI-H2405 | – | 0.776 | 0.808 | 0.769 | 0.817 | 0.547 | 0.595 | 0.619 | 0.654 | 0.365 | 0.812 | – | 1.01 | 1.12 | 1.09 | – | 0.938 | 1.01 | 0.923 | 0.885
RERF-LC-KJ | 0.715 | 0.891 | 0.96 | 0.761 | 0.74 | 0.39 | 0.455 | 0.634 | 0.538 | 0.57 | 0.51 | 0.61 | 0.679 | 0.665 | 0.64 | 0.894 | 0.787 | 0.823 | 0.837 | 0.818
NCI-H1734 | 0.734 | 0.569 | 0.705 | 0.667 | 0.744 | 0.44 | 0.575 | 0.57 | 0.585 | 0.67 | – | 0.772 | 0.796 | 0.785 | 0.788 | 0.925 | 0.85 | 0.917 | 0.805 | 0.928
NCI-H1792 | 0.678 | 0.592 | 0.799 | 0.65 | 0.645 | 0.738 | 0.708 | 0.73 | 0.707 | 0.664 | – | – | – | – | – | 0.59 | 0.422 | 0.535 | 0.494 | 0.543
NCI-H1648 | – | – | – | – | – | 0.255 | 0.262 | 0.249 | 0.278 | 0.251 | 0.481 | – | – | 0.572 | 0.424 | – | – | – | – | –
EBC-1 | 0.882 | 0.77 | 0.849 | 0.654 | 0.858 | – | – | – | – | – | – | – | – | – | – | 0.771 | 0.807 | 0.723 | 0.793 | 0.97
ChaGo-K-1 | – | – | – | – | – | 0.266 | 0.519 | 0.513 | 0.589 | 0.55 | 0.555 | 0.735 | 0.662 | 0.65 | 0.74 | – | – | – | – | –
NCI-H2170 | 0.826 | 0.806 | 0.931 | 0.786 | 0.764 | 0.771 | 0.748 | 0.741 | 0.683 | 0.617 | 0.795 | 0.777 | 0.839 | 0.786 | 0.79 | – | – | – | – | –
A549 | 0.697 | 0.686 | 0.75 | 0.688 | 0.796 | – | – | – | – | – | – | – | – | – | – | 0.62 | 0.576 | 0.591 | 0.626 | 0.586
SW 900 | – | – | – | – | – | – | – | 0.675 | 0.582 | 0.413 | – | 0.452 | 0.472 | 0.606 | 0.463 | – | – | – | – | –
NCI-H1650 | – | – | – | – | – | – | 0.501 | 0.691 | 0.502 | 0.561 | 0.57 | 0.471 | 0.523 | 0.627 | 0.6 | – | – | – | – | –
NCI-H1299 | 1.04 | 0.992 | 1.03 | 0.985 | 1.05 | – | – | – | – | – | – | – | – | – | – | 0.905 | 0.931 | 0.921 | 0.898 | 0.988
NCI-H1563 | 0.981 | 0.965 | 1 | 0.826 | 1.04 | 0.672 | 0.741 | 0.799 | 0.751 | 0.77 | – | – | – | – | – | 1.23 | 1.07 | 1.27 | 1.12 | 1.12
NCI-H522 | – | – | – | – | – | 0.679 | 0.731 | 0.888 | 0.689 | 0.732 | 0.832 | 0.825 | 0.736 | 0.84 | 0.979 | – | – | – | – | –
